Measurements reported in ChEMBL document CHEMBL1201862, “PubChem BioAssay data set” (2004).
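Tested at 5 concentrations; 48 h exposure; 96-well plates; endpoints linearly interpolated, else capped at highest concentration. At the GI50, growth is halved.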 Active and inactive are the calls of the source. No stated cut-off is given here; in the data, active = GI50 up to about 1.1 µM and inactive = higher.

Tests used:
Test in all cases: NCI tumour cell line growth inhibition, 48 h
[1] = test system: UACC-257
[2] = test system: OVCAR-4
[3] = test system: NCI-H460
[4] = test system: MDA-MB-231
[5] = test system: ACHN
[6] = test system: NCI/ADR-RES
[7] = test system: HOP-92
[8] = test system: RXF 393
[9] = test system: T47D
[10] = test system: SF-539
[11] = test system: MCF7
[12] = test system: NCI-H522
[13] = test system: DU-145
[14] = test system: K562
[15] = test system: UO-31
[16] = test system: A549
[17] = test system: SK-OV-3
[18] = test system: SNB-19
[19] = test system: TK-10
[20] = test system: IGROV-1
[21] = test system: Hs-578T
[22] = test system: UACC-62
[23] = test system: SN12C
[24] = test system: LOX IMVI
[25] = test system: SK-MEL-28
[26] = test system: KM12
[27] = test system: OVCAR-8
[28] = test system: SK-MEL-2
[29] = test system: SF-268
[30] = test system: MOLT-4
[31] = test system: OVCAR-5
[32] = test system: HCT-116
[33] = test system: A498
[34] = test system: 786-0
[35] = test system: NCI-H23
[36] = test system: Malme-3M
[37] = test system: COLO 205
[38] = test system: HOP-62
[39] = test system: SK-MEL-5
[40] = test system: HT-29
[41] = test system: HCT-15
[42] = test system: SF-295
[43] = test system: SR
[44] = test system: MDA-MB-435
[45] = test system: M14
[46] = test system: NCI-H226
[47] = test system: CAKI-1
[48] = test system: BT-549
[49] = test system: HL-60
[50] = test system: OVCAR-3
[51] = test system: SNB-75
[52] = test system: SW-620
[53] = test system: U-251
[54] = test system: PC-3
[55] = test system: MDA-N
[56] = test system: EKVX
[57] = test system: HCC 2998
[58] = test system: RPMI-8226

`CC(=O)OCC1OC(n2nc(Cc3ccccc3)c(=S)[nH]c2=S)C(OC(C)=O)C(OC(C)=O)C1OC(C)=O` (stereo not given) was tested, and the GI50 [1] was 18.7 µM (inactive), the GI50 [2] was 21.3 µM (inactive) and the GI50 [3] was 69 µM (inactive). For the same compound, the GI50 [4] was 14.7 µM (inactive), the GI50 [5] was > 100 µM (inactive) and the GI50 [6] was > 100 µM (inactive). The GI50 [7] was 20.4 µM (inactive), the GI50 [8] was 22.9 µM (inactive) and the GI50 [9] was 24.3 µM (inactive). The GI50 [10] was 24.9 µM (inactive), the GI50 [11] was 27.7 µM (inactive) and the GI50 [12] was 21.4 µM (inactive). The GI50 [13] was 25.4 µM (inactive), the GI50 [14] was 26.9 µM (inactive) and the GI50 [15] was 4.9 µM (inactive). For the same compound, the GI50 [16] was 84.1 µM (inactive), the GI50 [17] was 50.7 µM (inactive) and the GI50 [18] was 27.7 µM (inactive). The GI50 [19] was 57.8 µM (inactive), the GI50 [20] was 25 µM (inactive) and the GI50 [21] was 20.2 µM (inactive). For the same compound, the GI50 [22] was 18.5 µM (inactive), the GI50 [23] was 21.5 µM (inactive) and the GI50 [24] was 20.6 µM (inactive). The GI50 [25] was 42.8 µM (inactive), the GI50 [26] was 20.5 µM (inactive) and the GI50 [27] was 23.6 µM (inactive). The GI50 [28] was 17.7 µM (inactive), the GI50 [29] was 21.6 µM (inactive) and the GI50 [30] was 23.2 µM (inactive). The GI50 [31] was > 100 µM (inactive), the GI50 [32] was 21.3 µM (inactive) and the GI50 [33] was 32.1 µM (inactive). For the same compound, the GI50 [34] was 35.2 µM (inactive), the GI50 [35] was 20.3 µM (inactive) and the GI50 [36] was 31.6 µM (inactive). The GI50 [37] was 89.7 µM (inactive), the GI50 [38] was 22 µM (inactive) and the GI50 [39] was 82 µM (inactive). The GI50 [40] was 41.8 µM (inactive), the GI50 [41] was 19.4 µM and the GI50 [42] was 43.2 µM (inactive). The GI50 [43] was 31.2 µM (inactive), the GI50 [44] was 18.1 µM (inactive) and the GI50 [45] was 19.4 µM (inactive). For the same compound, the GI50 [46] was 54.1 µM (inactive), the GI50 [47] was 30.7 µM (inactive) and the GI50 [48] was 19.6 µM (inactive). The GI50 [49] was 0.583 µM (active), the GI50 [50] was 18.7 µM (inactive) and the GI50 [51] was 20.6 µM (inactive). The GI50 [52] was 30 µM (inactive), the GI50 [53] was 22.1 µM (inactive) and the GI50 [54] was 41.1 µM (inactive).

In the case of `Cc1ccc(/N=C2/S/C(=C3/CCC=C3N3CCOCC3)N(c3ccc(Cl)cc3)/C2=N/c2ccc(C)cc2)cc1`, the GI50 [1] is reported as > 100 µM (inactive), the GI50 [55] is reported as > 100 µM (inactive) and the GI50 [3] is reported as > 100 µM (inactive). For the same compound, the GI50 [4] was > 100 µM (inactive), the GI50 [5] was > 100 µM (inactive) and the GI50 [7] was > 100 µM (inactive). The GI50 [56] was > 100 µM (inactive), the GI50 [8] was > 100 µM (inactive) and the GI50 [9] was > 100 µM (inactive). For the same compound, the GI50 [57] was > 100 µM (inactive), the GI50 [11] was > 100 µM (inactive) and the GI50 [14] was > 100 µM (inactive). The GI50 [15] was > 100 µM (inactive), the GI50 [16] was > 100 µM (inactive) and the GI50 [18] was > 100 µM (inactive). The GI50 [58] was > 100 µM (inactive), the GI50 [19] was > 100 µM (inactive) and the GI50 [20] was > 100 µM (inactive). The GI50 [21] was > 100 µM (inactive), the GI50 [22] was > 100 µM (inactive) and the GI50 [23] was > 100 µM (inactive). The GI50 [25] was > 100 µM (inactive), the GI50 [26] was > 100 µM (inactive) and the GI50 [27] was > 100 µM (inactive). For the same compound, the GI50 [28] was > 100 µM (inactive), the GI50 [30] was > 100 µM (inactive) and the GI50 [31] was > 100 µM (inactive). For the same compound, the GI50 [32] was > 100 µM (inactive), the GI50 [33] was > 100 µM (inactive) and the GI50 [34] was > 100 µM (inactive). The GI50 [35] was > 100 µM (inactive), the GI50 [36] was > 100 µM (inactive) and the GI50 [37] was > 100 µM (inactive). For the same compound, the GI50 [38] was > 100 µM (inactive), the GI50 [39] was > 100 µM (inactive) and the GI50 [40] was > 100 µM (inactive). The GI50 [41] was > 100 µM, the GI50 [43] was > 100 µM (inactive) and the GI50 [45] was > 100 µM (inactive). For the same compound, the GI50 [46] was > 100 µM (inactive), the GI50 [48] was > 100 µM (inactive) and the GI50 [49] was > 100 µM (inactive). The GI50 [51] was > 100 µM (inactive), the GI50 [52] was > 100 µM (inactive) and the GI50 [53] was > 100 µM (inactive). For the same compound, the GI50 [54] was > 100 µM (inactive).
